According to article PMC12281142, “A potent phenylalkylamine disrupts mycobacterial membrane bioenergetics and augments bactericidal activity of bedaquiline” (iScience, 2025):
In brackets after ≈: the same amount, converted by molar mass. Several values for one entry are separate records, joined by “and”; a condition that tells them apart may be missing. Identical values can stand only once. Like-named read-outs stand apart in the source and are kept apart here.

Experiments:
[1] = test system: M. bovis BCG; test: microbe, parasite or virus in culture; type: cell-based, Mycobacterium bovis BCG; conditions: Mycobacterium tuberculosis variant bovis BCG, BCG
[2] = test system: Mab abscessus ATCC 19977; test: MIC against Mab abscessus ATCC 19977; type: cell-based, Mycobacterium abscessus subsp. abscessus; conditions: Mycobacteroides abscessus; for MIC50: ATCC19977, 72 h, 3 days
[3] = test system: M. bovis BCG; type: cell-based, Mycobacterium bovis BCG; conditions: BDQ alone 4x MIC90BCG (0.56 μg/mL), 28-day time point
[4] = test system: Mab abscessus; test: Time-kill kinetics, Mab abscessus; type: cell-based, Mycobacterium abscessus subsp. abscessus; conditions: BDQ alone 4x to 32x MIC90 (0.84–6.7 μg/mL)
[5] = test system: M. bovis BCG; type: cell-based, Mycobacterium bovis BCG; conditions: 15 μM or 8 μg/mL, equivalent to 230x MIC50
[6] = test system: Mab massiliense CCUG 48898-T; test: MIC against Mab massiliense CCUG 48898-T; type: cell-based, Mycobacterium abscessus subsp. massiliense; conditions: Mycobacteroides abscessus; for MIC50: CCUG48898, 72 h, 3 days
[7] = test system: Mab bolletii CCUG 50184-T; test: MIC against Mab bolletii CCUG 50184-T; type: cell-based, Mycobacterium abscessus subsp. bolletii; conditions: Mycobacteroides abscessus; for MIC50: CCUG50184, 72 h, 3 days
[8] = test system: clinical isolates of Mab; test: MIC50 against Mab clinical isolates; type: cell-based, Mycobacterium abscessus; conditions: Mycobacteroides abscessus
[9] = test system: Mab complex; test: MIC against Mab complex (summary over the 3 subspecies); type: cell-based, Mycobacterium abscessus; conditions: Mycobacteroides abscessus, read-out: MIC90 Mab complex
[10] = test system: Mtb H37Rv; conditions: minimum concentration to inhibit growth of Mtb H37RV by 99%; cited from earlier work
[11] = M. bovis BCG, broth dilution, growth reduced by 50% vs untreated
[12] = M. bovis BCG, broth dilution, growth reduced by 90% vs untreated
[13] = 7H9 medium (first value of cell)
[14] = CA-MHB medium (second value of cell)
[15] = read-out: MIC90 (Table S1), M. bovis BCG, broth dilution

In the case of `COc1nc2ccc(Br)cc2cc1[C@@H](c1ccccc1)[C@@](O)(CCN(C)C)c1cccc2ccccc12` [BDQ, bedaquiline], the MIC50 [1, 11] is reported as 0.065 µM, the MIC90 [1, 12] is reported as 0.25 µM and the MIC50 ([1]; read-out: MIC50 BCG) is reported as 0.036 µg/mL. For the same molecule, the MIC90 ([1]; read-out: MIC90 BCG, M. bovis BCG) was 0.14 µg/mL, the MIC90 ([2]; ATCC19977, Mab abscessus, read-out: MIC90 abscessus) was 0.37 µM and 0.21 µg/mL and the “reduction in CFU” value [3] was 10 fold. For the same molecule, the bactericidal activity [4] was “none to be bactericidal” and the oxygen consumption rate [5] was “sharp increase in OCR”.
For `CC[C@H]1OC(=O)[C@H](C)[C@@H](O[C@H]2C[C@@](C)(OC)[C@@H](O)[C@H](C)O2)[C@H](C)[C@@H](O[C@@H]2O[C@H](C)C[C@H](N(C)C)[C@H]2O)[C@](C)(OC)C[C@@H](C)C(=O)[C@H](C)[C@@H](O)[C@]1(C)O` [CLR, clarithromycin, reference compound], the MIC90 ([2]; ATCC19977, 7H9 broth (first value), read-out: MIC90 Mab abscessus ATCC 19977) was 0.5 µM (≈ 0.374 µg/mL), the MIC50 [2, 13] was 0.2 µM (≈ 0.15 µg/mL) and the MIC50 [2, 14] was 0.15 µM (≈ 0.112 µg/mL). It also gave an MIC90 ([2]; ATCC19977, camH broth (second value), read-out: MIC90 Mab abscessus ATCC 19977) of 0.4 µM (≈ 0.299 µg/mL), an MIC90 ([6]; CCUG48898, 7H9 broth (first value)) of 2 µM (≈ 1.5 µg/mL) and an MIC50 [6, 13] of 0.5 µM (≈ 0.374 µg/mL). The MIC50 [6, 14] was 0.1 µM (≈ 0.0748 µg/mL), the MIC90 ([6]; CCUG48898, camH broth (second value)) was 0.23 µM (≈ 0.172 µg/mL) and the MIC90 ([7]; CCUG50184, 7H9 broth (first value)) was 19 µM (≈ 14.2 µg/mL). The MIC50 [7, 13] was 8.8 µM (≈ 6.58 µg/mL), the MIC50 [7, 14] was 1 µM (≈ 0.748 µg/mL) and the MIC90 ([7]; CCUG50184, camH broth (second value)) was 11 µM (≈ 8.23 µg/mL). It also gave an MIC50 ([8]; Mab clinical isolate M9, 7H9 broth, read-out: MIC50 M9) of 0.1 µM (≈ 0.0748 µg/mL), an MIC50 ([8]; Mab clinical isolate M111, 7H9 broth, read-out: MIC50 M111) of 0.08 µM (≈ 0.0598 µg/mL) and an MIC50 ([8]; Mab clinical isolate M232, 7H9 broth, read-out: MIC50 M232) of 0.27 µM (≈ 0.202 µg/mL). The MIC50 ([8]; Mab clinical isolate M337, 7H9 broth, read-out: MIC50 M337) was 0.15 µM (≈ 0.112 µg/mL), the MIC50 ([8]; Mab clinical isolate M404, 7H9 broth, read-out: MIC50 M404) was 0.1 µM (≈ 0.0748 µg/mL) and the MIC50 ([8]; Mab clinical isolate M422, 7H9 broth, read-out: MIC50 M422) was 0.22 µM (≈ 0.165 µg/mL). It also gave an MIC50 ([8]; Mab clinical isolate M506, 7H9 broth, read-out: MIC50 M506) of 0.09 µM (≈ 0.0673 µg/mL), an MIC90 [9] of 0.1 to 8.8 µM and an MIC90 ([9]; range over subspecies, positive control) of 0.08 to 6.6 µg/mL.
Work on `COc1ccc(C(C#N)(CCCN2CCN(c3ccccc3F)CC2)C(C)C)cc1OC` (stereo not shown) [Compound A1, reference compound] yielded an MIC50 [1, 11] of 87 µM, an MIC90 [1, 12] of 138 µM and an MIC90 [1, 15] of 138 µM. For the same molecule, the “MIC99 Mtb” value [10] was 62.5 µM (≈ 27.5 µg/mL).
Work on `COc1ccc(CCN(C)CCCC(C#N)(c2ccc(OC)c(OC)c2)C2CCCCC2)cc1OC` (stereo not shown) [Compound A2, reference compound] yielded an MIC50 [1, 11] of 36 µM, an MIC90 [1, 12] of 118 µM and an MIC90 [1, 15] of 118 µM. For the same molecule, the “MIC99 Mtb” value [10] was 62.5 µM (≈ 30.9 µg/mL).
